Measured values reported in the METLIN SMRT retention time set (Domingo-Almenara et al. 2019).

Assay: gradient 5% acetonitrile 3 min, to 50% in 2 min, to 85% in 15 min, held 3 min, 100 µL/min
Settings: column: Zorbax Extend-C18 2.1 x 50 mm; eluents: water / acetonitrile, 0.1% formic acid
Outline: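 Over 3 months, pure standards in mixtures of ~100 molecules were run by HPLC coupled to a quadrupole time-of-flight mass spectrometer in positive and negative ionization mode. The column was a Zorbax Extend-C18 (2.1 × 50 mm, 1.8 μm) at 100 μL/min, eluted with water and acetonitrile each holding 0.1% formic acid, with 40 μL dead and 900 μL dwell volumes. Retention time was determined from adduct peaks chosen by software and checked manually.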

SMILES | RP-LC retention time [s]
O=C(c1cccc(F)c1)N1CCC(C(=O)N2CCN(Cc3ccc4c(c3)OCO4)CC2)CC1 | 610
COc1ccccc1CN1C[C@@H]2C(=O)N(Cc3ccc4c(c3)OCO4)C(=O)[C@@H]2C1 | 724
CC(C)S(=O)(=O)c1cc2c(cc1NC(=O)c1ccccc1Cl)n(C)c(=O)n2C | 824
COc1ccc(NC(=O)N2[C@H]3CC[C@@H]2c2cnc(-c4ccccc4)nc2C3)cc1OC | 838
COc1ccc(OC)c(NC(=O)COc2cc(C(F)(F)F)c3c(C)nn(C)c3n2)c1 | 1100
CC1=C(c2ccccc2)S(=O)(=O)N=C1N1CCCN(C(=O)Nc2ccccc2)CC1 | 669
Cc1cc(C(=O)NCCCSC2CCCCC2)n(-c2ccccc2)n1 | 1030
CC(=O)Nc1ccc(-c2nnc3n2CCCC3)cc1 | 563
CCOC(=O)Cn1c(=O)c2c(nc3n2CC(C)CN3c2ccc(OCC)cc2)n(C)c1=O (stereo not drawn) | 958
Cc1ccc(-c2cc3c4nnc(SCC(=O)Nc5cccc(C(F)(F)F)c5)n4ccn3n2)cc1 | 1040
CCCNC(=O)C1CCN(c2ccc(SCC(=O)Nc3ccc(F)cc3Cl)nn2)CC1 | 682
CC(C)OCCCNC(=O)C(C)n1c(=O)c(C(F)(F)F)nc2ccccc21 (stereo not drawn) | 972
COc1ccc2c(c1)C1(CCN(C(=O)c3ccccc3OC)C1)C(=O)N2 (stereo not drawn) | 709
CC(=O)Nc1ccc(-n2cnc(C(=O)NCc3ccccc3)c2)nc1 | 663
COc1cccc(N2C(=O)c3ccccc3C2C(=O)NC2CCCC2)c1 (stereo not drawn) | 775
Cc1cc(C(=O)N2CCC3(CCC3O)CC2)c(C)o1 (stereo not drawn) | 683
CCOCCCNC(=O)C(C)Sc1ccc(=O)n(-c2ccc(C)c(Cl)c2)n1 (stereo not drawn) | 797
Cc1nn(-c2ccccc2)c(C)c1S(=O)(=O)N1CCC(C(=O)Nc2ccc3c(c2)OCCO3)CC1 | 914
CN1C(=O)c2cccnc2Sc2cc(NC(=O)Cc3cccc(F)c3)ccc21 | 784

SMILES | RP-LC retention time [s]
Cc1nc(-c2ccc(N3CCN(C(=O)c4nn(C)c5ccccc45)CC3)nc2)sc1C | 966
COc1ccc2c(c1)CCCN2C(N)=Nc1ccc(Cl)cc1 | 753
N#Cc1cccc(-c2cn3c(n2)N(C(=O)c2cnccn2)CCC3)c1 | 687
Cc1nc(-c2ccccn2)cc2nn(CC(=O)NCCC(C)C)c(=O)n12 | 713
Cc1ccccc1Cn1c(CN2CCC(C(=O)NCCC(C)C)CC2)cc2ccccc21 | 822
CCCn1c(=O)sc2cc(S(=O)(=O)N3CCC(C(=O)NC)CC3)ccc21 | 730
Cc1oc(C2CCN(C(=O)Cc3cccs3)CC2)nc1C(=O)N1CCSCC1 | 742
CCCc1noc(-c2ccc(-n3ncc(C(=O)N4CCSCC4)c3C)nc2)n1 | 967
CCOc1ccc(-n2nnnc2CNS(=O)(=O)c2cccc(C(F)(F)F)c2)cc1 | 892
O=C(COc1coc(CN2CCc3ccccc32)cc1=O)NCc1ccc2c(c1)OCO2 | 781
O=C(NCCc1c[nH]c2ccc(Cl)cc12)c1ccccc1Cl | 873
Cc1ccc(Sc2nccnc2N2CCC(C(=O)NCC3CCCO3)CC2)cc1 (stereo not drawn) | 814
O=C(Nc1ccccc1)N1CCC(N2CC(OCC3CC3)C23CCOCC3)CC1 (stereo not drawn) | 635
COc1ccc(NC(=O)c2c(O)c3sccc3n(C)c2=O)cc1Cl | 1170
Cc1cc(C)cc(Oc2nccn3c(=O)n(CC(=O)Nc4cc(Cl)ccc4C)nc23)c1 | 1050
Cc1noc(-c2nc(-c3ccc(OC(C)C)cc3)no2)n1 | 1120
CC(=O)c1cccc(Nc2c(C(=O)N3CCCC3)cnc3nc(C)ccc23)c1 | 587
CCCNC(=O)C1CCN(c2ccc(SCC(=O)NCc3ccc(F)cc3)nn2)CC1 | 667

The remaining lines, values ahead:

RP-LC retention time [s] | SMILES
955 | CC(C)OC(=O)CCC/C=C\C[C@@H]1[C@@H](/C=C/[C@@H](O)COc2cccc(C(F)(F)F)c2)[C@H](O)C[C@@H]1O
1010 | CCOc1ccc(NC(=O)C2CCCN(c3ccc(=O)n(-c4ccc(C)c(Cl)c4)n3)C2)cc1 (stereo not drawn)
782 | Cc1cc(C)cc(NC(=O)CN2CCN(Cc3ccccc3)C(=O)C2=O)c1
634 | CC(C)CN1CCN(C(=O)CN2CCN(Cc3ccc(F)cc3Cl)C2=O)CC1
810 | CC1(C(=O)NCc2ccccc2)Cn2c(ccc2-c2ccco2)C(=O)N1C1CC1 (stereo not drawn)
892 | Cc1ccc(-c2nnc(N3CCC(C(=O)NC(C)c4ccc(F)cc4)CC3)o2)cc1 (stereo not drawn)
948 | CCOC(=O)c1noc2ncnc(N(CC)c3ccccc3)c12
918 | CCCOc1ccc(CNC(=O)c2nc3cccnc3n(CC)c2=O)cc1
999 | CCOC(=O)c1cc(S(=O)(=O)N2CCCC2C(=O)Nc2ccccc2C(F)(F)F)cn1C (stereo not drawn)
679 | CCOC(=O)c1c(CN2CCN(CCO)CC2)n(C)c2cc(Br)c(OC(C)=O)cc12
762 | CC(C)CC(=O)Nc1ccc2nc(N3CCN(c4cccc(Cl)c4)CC3)cc(C(=O)O)c2c1
1150 | COc1ccc(-c2noc(-c3cccnc3N3CCN(c4ccccc4OC)CC3)n2)cc1
646 | COCC(CN1CCN(C2=NS(=O)(=O)c3ccccc32)CC1)OC(=O)c1ccc(C)cc1 (stereo not drawn)
563 | CCn1c(=O)c(=O)n(CC(=O)N2CCN(c3ccccn3)CC2)c2ccccc21
908 | COc1cccc(NC(=O)Cn2nc(N3CCSCC3)c3ccccc3c2=O)c1
757 | Cc1ccc(S(=O)(=O)N2CCC3(CC2)NCCN=C3NCc2ccc(F)cc2)cc1C
739 | Cn1c(=O)sc2cc(S(=O)(=O)N3CCC(C(=O)NCc4ccco4)CC3)ccc21
600 | CCN1CCn2cc(C(=O)NCc3cccc(Br)c3)nc2C1
833 | CCC(=O)NCC[C@@H]1CCc2ccc3c(c21)CCO3
606 | Cc1ccc(C(=O)N2CCc3[nH]cnc3C23CCCCC3)s1
631 | CCc1ccc(CN2C[C@@H]3C(=O)N(CCOC)C(=O)[C@@H]3C2)cc1
931 | CC(C)c1cccc(NC(=O)C2CCN(C(=O)c3ncn4c3COC(c3ccc(F)cc3)C4)CC2)c1 (stereo not drawn)
746 | CN1CC(=O)N(CC(=O)N2CCN(c3ccc(Cl)cc3)CC2)c2ccccc2C1=O
789 | Cc1nc(-c2nnn(-c3ccc(F)cc3)c2C)no1
1250 | C=CCN(CC=C)C(=O)C1CCN(C(=O)c2cccc(F)c2)CC1
845 | CCc1nnc2ccc(-c3noc(-c4c(F)cccc4F)n3)cn12

RP-LC retention time [s] | SMILES
849 | CCN1c2ccc(C)cc2C(=O)NC12CCN(C(=O)c1cccc(C)c1)CC2
632 | CO[C@H]1C(=O)N(C2CCN(S(=O)(=O)Cc3ccccc3)CC2)[C@H]1c1ccncc1
814 | CCC1CN2C=NC(N3CCN(C(=O)Nc4ccccc4Cl)CC3)=CC2=N1 (stereo not drawn)
992 | CCOC(=O)[C@H]1O[C@@H]1C(=O)N[C@@H](CC(C)C)C(=O)NCCC(C)C
958 | Cc1ccc(CNc2nnc(-c3nc(C4CC4)no3)c3ccccc23)cc1
710 | CCCCNC(=O)C1c2cc(OC)c(OC)cc2C(=O)N(C)C1c1ccc(OC)c(OC)c1 (stereo not drawn)
1100 | Cc1[nH]nc(-c2c(C)sc(C)c2S(=O)(=O)NCc2ccc(Cl)cc2)c1C
1130 | CCc1nc(-c2csc(S(=O)(=O)N3CCCC(C(=O)Nc4ccc(F)c(Cl)c4)C3)c2)no1 (stereo not drawn)
666 | CCCn1cnc2cc(CNC(=O)Cc3c(Cl)cccc3Cl)ccc21
821 | COc1ccc(CCc2nc3nccc(-c4ccccc4)n3n2)cc1OC
765 | FC(F)(F)c1cccc(CN2CCCN(c3ncccc3-c3nc(C4CC4)no3)CC2)c1
1040 | Cc1ccc(Nc2c(-c3ccccc3)nc3cnccn23)c(Br)c1
830 | Cc1ccc(C(=O)NCC(=O)N2CCCc3ccccc32)s1
1070 | O=C(c1ccoc1)N1CC(Oc2cccc(-c3nc(-c4ccccc4)no3)c2)C1
620 | Cc1ccccc1NC(=O)Cc1cn2cc(Cl)ccc2n1
731 | Cc1cc(C)cc(NC(=O)N2CCCC(Cn3c(C4CC4)nc4cccnc43)C2)c1 (stereo not drawn)
1090 | O=C(Oc1ccc2oc(=O)sc2c1)c1cccc(Cl)c1
1050 | COc1ccc(Cl)cc1NC(=O)C1CCN(S(=O)(=O)c2cc(-c3noc(C)n3)cs2)CC1
971 | CCOC(=O)c1noc2ncnc(Nc3ccccc3OCC)c12
667 | Cc1cc(C)c2sc(N(CCCn3ccnc3)C(=O)C3COc4ccccc4O3)nc2c1 (stereo not drawn)
682 | Cc1ccc(NC(=O)N2CCCC(Cn3cnc4cccnc43)C2)c(Cl)c1 (stereo not drawn)
851 | CCn1cc(C(=O)NC2CCCC2)c2nn(-c3ccccc3)c(=O)c-2c1
588 | CO[C@H]1CN(C2CCN(Cc3ccc(C)o3)CC2)[C@H]1c1ccncc1
622 | O=C(c1nc2ccccn2c1-c1ccsc1)N1CCCC1
834 | O=C(Nc1ccc2c(c1)N(S(=O)(=O)c1ccccc1)CCC2)c1ccc2c(c1)OCO2
